Data as given in US6759238B1, “Multidrug resistance associated proteins and uses thereof” (priority 1999, dated 2004).
Where two headings read alike, the source gives them in different places.

Columns and labels:
[1] = system: CEM-SS cells; test: Phosphorylation of AZT; assay type: in vitro ADME, human; conditions: 10 μM AZT
Experimental: (§1) The appearance of the phosphorylated metabolites into the medium was also determined in both the cell lines. AZTDP and AZTTP were not detected in the medium of either CEM-SS or CEM-r1 cells. However, the amount of AZTMP accumulated in the media was approximately 3-fold higher in CEM-r1 cells than in CEM-SS cells.
(§2) The cartridges were conditioned with 10% MeOH Ammonium Phosphate Buffer (5 mM, pH 4.0). The sample was loaded onto the column. […] AZTDP and AZTTP were eluted with 10% MeOH Ammonium Phosphate Buffer (700 mm, pH 4.6).

[2] = system: CEM-r1 cells; test: Phosphorylation of AZT; assay type: in vitro ADME, human; conditions: CEM-r1, 10 μM AZT
Experimental: as §1, §2

[3] = system: CEM-r1 cells; test: Efflux of [3H]-AZT and its metabolites; assay type: in vitro ADME, human
Experimental: Cells were incubated for 60 minutes with [^3H]-AZT (10 μM) after which they were washed free of radioactivity, resuspended in drug-free medium and the intracellular and the extracellular concentration of [^3H]-AZT were measured. […] At least 80% of the AZTMP present intracellularly in CEM-r1 cells was excreted into the medium in 10 minutes (FIG. 6A).
(§3) Referring to Table 6 in greater detail, efflux kinetics were studied. Transport analysis of PMEA was conducted as previously described^48. […] The cells were then washed free of radioactivity and then incubated in drug-free medium in the presence of sodium azide and 2-deoxy-D-glucose. At various time periods, the amount of intracellular AZTMP was measured. As reported in Table 6, depletion of ATP led to an inhibition of AZTMP efflux (i.e. a significant accumulation of AZTMP in the CEM-r1 cells but not in the CEM-SS cells).
The suspension was centrifuged at 3,300 rpm for 7 minutes. All but 1 ml of the supernatant medium containing the free drug was aspirated. […] The cell pellet was then washed with ice-cold medium and resuspended at the same concentration in drug-free medium and maintained at 37° C. […] An aliquot of the top layer (cell free media) was analyzed for the quantitation of AZT and its metabolites.

[4] = system: CEM-SS cells; test: Cytotoxicity assay (growth inhibition, Coulter counter); conditions: CEM-SS, 2 days of culture (Table 3)
Experimental: (§4) […] Each result is the mean of one representative experiment performed in duplicate. The cultures with the purine nucleosides adenosine, 2′-deoxyadenosine, and arabinosyladenine contained 5 μM deoxycoformycin to inhibit adenosine deaminase activity.
(§5) All assays were performed in 24-well tissue culture plates (Costar, Cambridge, Ma.). […] At the end of the incubation, the cell concentrations, sizes, and volumes were counted in a Coulter counter (Coulter Electronics, Hialeah. Fla.).

[5] = system: CEM-r1 cells; test: as above
Experimental: (§6) Selection for PMEA resistance was carried out by exposing CEM-SS cells in culture to increasing concentrations of PMEA, over several months.
(§7) The IC50 values were obtained after 2 days of culture. Each result is the mean of one representative experiment performed in duplicate. The cultures with the purine nucleosides adenosine, 2′-deoxyadenosine, and arabinosyladenine contained 5 μM deoxycoformycin to inhibit adenosine deaminase activity.
as §5

[6] = system: CEM-SS cells; test: Uptake and metabolism of [3H]bispom-PMEA
Experimental: (§8) Therefore, the metabolism of [^3H]bispom-PMEA (15), a lipophilic prodrug of PMEA, was analyzed in the two cell lines in order to further examine the mechanism of resistance in the mutant cell line.

[7] = system: CEM-r1 cells; test: Uptake and metabolism of [3H]bispom-PMEA
Experimental: as §8

[8] = system: CEM-SS cells; test: Efflux of PMEA from bispom-PMEA loaded cells; assay type: in vitro ADME, human; conditions: CEM-SS, 3 min incubation, efflux at 15 minutes
Experimental: (§9) To examine whether the resistant cells could be altered in their capacity to retain the phosphonate analog, the clearance of [^3H]PMEA and its metabolites from CEM-SS and CME-r1 cells was determined. […] Aliquots of cells and medium sampled at different intervals over a period of 2 hr were analyzed by HPLC, and the results are shown in FIG. 4. […] Some of this clearance was probably due to the anabolism of PMEA, because the PMEAp- and PMEApp-associated radioactivity continued to accumulate within the cells, but the majority of the radioactivity was excreted into the medium as PMEA. In contrast to the results with parental cells, loss of intracellular PMEA-associated radioactivity in the resistant CEM-r1 cells was extremely rapid and the majority of the radioactivity within the cells was excreted into the medium within 20-30 minutes of incubation (FIG. 4).
(§10) Both CEM-SS and CME-r1 cells were incubated for 3 minutes with increasing concentrations (range 0.07 mM to 8.80 mM) of the prodrug for the selecting agent, Bis(POM)PMEA. After incubation, the cells were pelleted and reconstituted in drug-free medium, and the amount of PMEA present in the medium and intracellularly was measured 15 minutes after resuspension. The amount of PMEA effluxing out into the medium at 15 minutes increased initially with increasing concentration (FIG. 7A).
as §3
(§11) At the indicated times, extracts were prepared from the cells and the medium, and the prodrug and its various nucleoside/nucleotide metabolites were analyzed by HPLC as described previously (24).

[9] = system: CEM-r1 cells; test: Efflux of PMEA from bispom-PMEA loaded cells; assay type: in vitro ADME, human; conditions: CEM-r1, 3 min incubation, efflux at 15 minutes
Experimental: as §9, §10
CEM-r1 cells were incubated with 0.07-8.8 mM Bis(POM)PMEA for 3 minutes. The cells were pelleted and reconstituted in either drug-free medium or in medium containing 0.5 mM PMEA, and the amount of PMEA present in the medium and intracellularly was measured 15 minutes after resuspension.
as §3, §11

[10] = system: CaCo-2 cells; test: PMEA transport in transwell culture; assay type: in vitro ADME; conditions: CaCo-2 transwell
Text: A transwell culture which is permissive for cellular polarization may be used to measure the compartment to compartment flux of putative substrates. […] In addition, it is possible that expression of MPR4 depending if it is basal or apical (and this may vary by organ cultured) may determine if PMEA or PMEA-like drugs are absorbed.

[11] = Cytotoxicity assay (growth inhibition, Coulter counter); conditions: human, CEM-SS cells (wild type, parental)
Experimental: as §4, §5

[12] = as above; conditions: human
Experimental: as §6, §7, §5

[13] = system: HIV-1IIIB in CEM-SS cells; test: Antiviral activity (ED50, RT / p24 assay) in wild type cells; assay type: cell-based; conditions: Human immunodeficiency virus 1, WT (CEM-SS) cells
Text: (§12) As used herein, “pM” means picomolar, “nM” means nanmolar, “μM, means micromolar, “mM” means millimolar, “ul” or “μl” mean microliter, “ml” means milliliter, “l” means liter. […] “IC50” means the inhibitory concentration at which growth is arrested by 50 percent.
(§13) The two cell lines, CEM-SS and CEM-r1 were infected with HIV-IMB at a multiplicity of 0.01, and cultured for 6 days in the presence and absence of different concentrations of test drugs. The extent of virus production was monitored by in in-house p24 antigen capture assay (50).
The antiviral effects of the different drugs were monitored by RT assays according to previously described procedures (20, 21). […] After 5 days of incubation, the RT activity of the culture supernates was determined by previously described procedures (22). […] The filter papers were dried, transferred to a plastic bag containing scintillation cocktail, sealed, and counted in an LKB Betaplate reader. The drug concentrations yielding half-maximal RT activity (ED50) was calculated as a measure of the antiviral efficacy of the test compounds, using the nonlinear curve-fitting software Enzfitter (Elsevier Biosoft, Cambridge, UK).

[14] = system: HIV-1IIIB in CEM-r1 cells; test: Antiviral activity (ED50, RT / p24 assay) in resistant cells; assay type: cell-based; conditions: Human immunodeficiency virus 1; CEM-r1 cells, HIV
Text: as §12, §13
The antiviral effects of the different drugs were monitored by RT assays according to previously described procedures (20, 21). CEM-SS or CEM-r1 cells were infected with an inoculum of HIV-1IIIB standardized to contain 1 RT cpm/cell, and the virus-infected cells were seeded at a concentration of 0.2×10^6 cells/ml in medium containing varying concentrations of PMEA (or other test compounds). After 5 days of incubation, the RT activity of the culture supernates was determined by previously described procedures (22). […] The reaction was initiated by addition of 10 ul of virus-containing tissue culture supernatant. After 1 hr of incubation, 10 ul of the reaction mixture were spotted on a Whatman DE-81 tilter paper, air dried, and washed four times with 2×standard saline citrate (0.3 M NaCl, 0.03 M sodium citrate). The filter papers were dried, transferred to a plastic bag containing scintillation cocktail, sealed, and counted in an LKB Betaplate reader. The drug concentrations yielding half-maximal RT activity (ED50) was calculated as a measure of the antiviral efficacy of the test compounds, using the nonlinear curve-fitting software Enzfitter (Elsevier Biosoft, Cambridge, UK).

[15] = CEM-SS, 1 μM [3H]bispom-PMEA, 15 minutes
[16] = CEM-r1, 1 μM [3H]bispom-PMEA, 15 minutes

Molecule: Cc1cn([C@H]2C[C@H](N=[N+]=[N-])[C@@H](CO[P@](=O)(O)O[P@](=O)(O)OP(=O)(O)O)O2)c(=O)[nH]c1=O [AZTTP]
- Appearance in the medium [1]: not detected
- Intracellular Concentration ([1]; 4 hours): 1.3 µM
- Intracellular Concentration ([1]; 8 hours): 1.5 µM
- Intracellular Concentration ([1]; 24 hours): 1.3 µM
- Appearance in the medium [2]: not detected
- Intracellular Concentration ([2]; 4 hours): 0.36 µM
- Intracellular Concentration ([2]; 8 hours): 0.34 µM
- Intracellular Concentration ([2]; 24 hours): 0.43 µM
- Change of intracellular levels over the time period studied [3]: did not change significantly
- Share of total cellular anabolites ([3]; human, 10 μM): 1%

Molecule: CC(C)(C)C(=O)OCOP(=O)(COCCn1cnc2c(N)ncnc21)OCOC(=O)C(C)(C)C [Bispom-PMEA, bis(pivaloyloxymethyl)-9-(2-phosphonylmethoxyethyl)adenine]
- IC50 [4]: 0.26 µM
- IC50 ([5]; CEM-r1, 2 days of culture (Table 3)): 32 µM
- Relative Resistance ([5]; CEM-r1 vs CEM-SS (Table 3)): 123
- Cross-resistance of CEM-r1 cells (in words) ([5]; relative sensitivity of wild-type and CEM-r1 cells): highly cross-resistant
- Metabolite Levels, Cells [6, 15]: 0.03 µM
- Metabolite Levels, Medium [6, 15]: 490 nM
- Radioactivity present in the cells detected as the intact pro-drug ([6]; after incubation with [3H]bispom-PMEA, similar in parental and resistant cells): ~2%
- Initial uptake, difference between the two cell lines ([7]; 1 μM [3H]bispom-PMEA, early time course (120 sec), CEM-SS vs CEM-r1): no significant difference
- Metabolite Levels, Cells [7, 16]: 0.04 µM
- Metabolite Levels, Medium [7, 16]: 429 nM
- Prodrug concentration above which the amount of PMEA effluxed did not increase significantly [8]: higher than 2.2 mM
- Prodrug concentration above which the amount of PMEA effluxed did not increase significantly [9]: > 4.4 mM

Molecule: prostaglandin A
- Effect on apical to basal transport of PMEA [10]: specifically inhibits
- Effect on basal to apical flux of PMEA [10]: no effect

Molecule: Nc1ccn([C@@H]2CS[C@H](CO)O2)c(=O)n1 [3TC, lamivudine]
- IC50 at 48 h [11]: 1000 µM
- IC50 at 48 h [12]: 5000 µM
- EC50 [13]: 0.21 µM
- EC50 [14]: 1.1 µM

Molecule: Cc1cn([C@H]2C[C@H](N=[N+]=[N-])[C@@H](COP(=O)(O)OP(=O)(O)O)O2)c(=O)[nH]c1=O [AZTDP]
- Change of intracellular levels over the time period studied [3]: did not change significantly
- Share of total cellular anabolites [3]: 1%
